One series addresses T1, NHE1 (Homo sapiens, UniProt P19634).
T1 construct: expressed in transfected cells
Description: NHE inhibition FLIPR test (intracellular pH recovery, BCECF). Format: cell-based. The note with it: transfected LAP-1 cell line expressing NHE1 subtype, pHi recovery after acidification. The procedure:
The NHE inhibitory activities (IC50 values) of the compounds according to the invention were determined by a FLIPR test.
The test is performed in the FLIPR (Fluorescent Imaging Plate Reader) equipped with clear-bottomed and black-walled 96-well microtitration plates.
The growth medium for the transfected cells (Iscove+10% foetal calf serum) also comprises G418 as selection antibiotic to ensure the presence of transfected sequences.
The actual test begins by eliminating the growth medium and adding 100 μl of loading buffer per well (5 μM of BCECF-AM [2′,7′-bis(2-carboxyethyl)-5-(6)-carboxyfluoresceine acetoxymethyl ester] in 20 mM of NH4Cl, 115 mM of choline chloride, 1 mM of CaCl2, 5 mM of KCl, 20 mM of HEPES and 5 mM of glucose; pH 7.4 (adjusted with KOH). The cells are then incubated for 20 minutes at 37° C. This incubation results in the loading of the fluorescent dye into the cells, the fluorescence intensity of which depends on the pHi, and on the NH4Cl, which results in a slight basification of the cells.
The precursor BCECF-AM, a non-fluorescent dye, is, as an ester, capable of crossing the membrane. The actual dye, which is incapable of crossing the membrane, is released inside the cell by esterases.
After this 20-minute incubation, the loading buffer, which comprises NH4Cl and free BCECF-AM, is removed by washing three times in the cell washing device (Tecan Columbus), each wash being performed with 400 μl of washing buffer (133.8 mM of choline chloride, 4.7 mM of KCl, 1.25 mM of MgCl2,1.25 mM of CaCl2, 0.97 mM of K2HPO4, 0.23 mM of KH2PO4, 5 mM of HEPES and 5 mM of glucose; pH 7.4 (adjusted with KOH)). The residual volume remaining in the wells is 90 μl (possibly between 50 and 125 μl). This washing step removes the free BCECF-AM and results in an intracellular acidification (pHi of 6.3–6.4) due to the removal of the external ammonium ions.
As the equilibrium of the intracellular ammonium with the aqueous ammonia and the protons, by removal of the extracellular ammonium and by the subsequent immediate crossing of the aqueous ammonia across the cell membrane, is disrupted, the washing process results in intracellular protons remaining, which is the cause of the intracellular acidification. This acidification can result finally in the death of the cells if it lasts long enough. It is important here for the washing buffer to be free of sodium (<1 mM), otherwise the extracellular sodium ions would result in an immediate increase in the pHi on account of the activity of the cloned NHE isoforms. It is also important for all the buffers used (loading buffer, washing buffer and regeneration buffer) not to contain any HCO3^− ions, otherwise the presence of bicarbonate would result in the activation of bicarbonate-dependent systems that disrupt the pHi regulation, which systems are contained in the LAP-1 parental cell line.
The microtiter plates containing acidified cells are then transferred (up to 20 minutes after the acidification) to the FLIPR. In the FLIPR, the intracellular fluorescent dye is activated with light of a wavelength of 488 nm, which is generated by an argon laser, and the measuring parameters (laser power, illumination time and diaphragm of the […] camera integrated into the FLIPR) are chosen such that the average value of the fluorescent signal per well is between 30,000 and 35,000 relative fluorescence units.
The actual measurement in the FLIPR starts with a photograph being taken by the CCD camera every two seconds under software control. After 10 seconds, the increase in the intracellular pH is initiated by adding 90 μl. of regeneration buffer (133.8 mM of NaCl, 4.7 mM of KCl, 1.25 mM of MgCl2, 1.25 mM of CaCl2, 0.97 mM of K2HPO4, 0.23 mM of KH2PO4, 10 mM of HEPES and 5 mM of glucose; pH 7.4 (adjusted with NaOH)) using a 96-well pipette device incorporated into the FLIPR. Some wells, to which is added pure regeneration buffer, serve as positive controls (100% NHE activity). […]

Each structure is given as a SMILES string. Where a name gives a salt, the structure may show the parent alone.

T1 sequence (P19634 whole entry, species assumed): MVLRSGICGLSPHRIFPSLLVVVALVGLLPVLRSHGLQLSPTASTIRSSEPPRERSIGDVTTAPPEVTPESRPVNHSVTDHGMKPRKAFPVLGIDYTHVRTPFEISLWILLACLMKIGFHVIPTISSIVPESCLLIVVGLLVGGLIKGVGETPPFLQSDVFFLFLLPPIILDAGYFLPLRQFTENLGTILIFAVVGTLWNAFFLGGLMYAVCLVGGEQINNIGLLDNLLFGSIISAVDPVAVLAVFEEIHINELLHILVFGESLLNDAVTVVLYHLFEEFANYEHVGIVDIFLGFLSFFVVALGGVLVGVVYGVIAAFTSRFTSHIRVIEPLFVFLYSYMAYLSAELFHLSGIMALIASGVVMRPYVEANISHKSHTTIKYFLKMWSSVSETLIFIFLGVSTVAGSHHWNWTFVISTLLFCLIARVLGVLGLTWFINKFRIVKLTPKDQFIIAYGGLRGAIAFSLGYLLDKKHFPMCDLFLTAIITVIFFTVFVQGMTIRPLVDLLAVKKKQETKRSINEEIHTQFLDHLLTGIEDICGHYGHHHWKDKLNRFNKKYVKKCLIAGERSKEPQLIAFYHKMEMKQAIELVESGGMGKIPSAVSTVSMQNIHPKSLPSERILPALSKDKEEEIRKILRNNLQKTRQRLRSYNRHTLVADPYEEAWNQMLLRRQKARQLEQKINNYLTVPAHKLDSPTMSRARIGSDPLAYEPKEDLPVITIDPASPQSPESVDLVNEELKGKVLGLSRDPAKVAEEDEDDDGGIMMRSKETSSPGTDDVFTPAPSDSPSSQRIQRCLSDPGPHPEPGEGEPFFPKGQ

As to `CS(=O)(=O)c1ccc(-n2cc(C(=O)NC(=N)N)c3cccnc32)cc1` (as salt: hydrochloride) [Example 6, N-[1-(4-(Methylsulfonyl)phenyl)-1H-pyrrolo[2,3-b]pyridine-3-carbonyl]guanidine hydrochloride], the melting point is 266 to 270 °C.

In turn, `N=C(N)NC(=O)c1cn(-c2ccnc3ccccc23)c2ncccc12` [Example 1, N-[1-(Quinolin-4-yl)-1H-pyrrolo[2,3-b]pyridine-3-carbonyl]guanidine] came in with a melting point of 164 °C. At NHE1, this compound returned a half-maximal inhibitory concentration (IC50) of 0.003 µM.

`N=C(N)NC(=O)c1cn(-c2ccncc2)c2ncccc12` [Example 2, N-[1-(Pyridin-4-yl)-1H-pyrrolo[2,3-b]pyridine-3-carbonyl]guanidine] showed a melting point of 210 °C. In addition, the IC50 against NHE1 was 0.01 µM. As to `N=C(N)NC(=O)c1cn(-c2nccc3ccccc23)c2ncccc12` [Example 3, N-[1-(Isoquinolin-1-yl)-1H-pyrrolo[2,3-b]pyridine-3-carbonyl]guanidine], 0.015 µM corresponded to half-maximal inhibition at NHE1 (IC50).

For the compound `N=C(N)NC(=O)c1cn(-c2ccc3ccccc3n2)c2ncccc12` [Example 4, N-[1-(Quinolin-2-yl)-1H-pyrrolo[2,3-b]pyridine-3-carbonyl]guanidine], the IC50 against NHE1 came out at 6.24 µM. Compound `Cl.N=C(N)NC(=O)c1cn(-c2ccccn2)c2ncccc12` [Example 5, N-[1-(Pyridin-2-yl)-1H-pyrrolo[2,3-b]pyridine-3-carbonyl]guanidine hydrochloride] displayed a melting point of 205 to 207 °C. The IC50 at NHE1 came out at 0.018 µM. Regarding `CS(=O)(=O)c1ccc(-n2cc(C(=O)NC(=N)N)c3cccnc32)cc1` [Example 6, N-[1-(4-(Methylsulfonyl)phenyl)-1H-pyrrolo[2,3-b]pyridine-3-carbonyl]guanidine hydrochloride], at NHE1, the IC50 was found to be 3.76 µM. Still for that read-out and setting: in the case of `CN(C)c1cccc(-n2cc(C(=O)NC(=N)N)c3cccnc32)c1` [Example 7, N-[1-(3-(Dimethylamino)phenyl)-1H-pyrrolo[2,3-b]pyridine-3-carbonyl]guanidine] it was 0.003 µM; in that of `Cc1cc(-n2cc(C(=O)NC(=N)N)c3cccnc32)c2ccccc2n1` [Example 8, N-[1-(2-Methylquinolin-4-yl)-1H-pyrrolo[2,3-b]pyridine-3-carbonyl]guanidine hydrochloride], 0.026 µM. For `Cn1ccc2c(-n3cc(C(=O)NC(=N)N)c4cccnc43)ncnc21` [Example 9, N-[1-(7-Methyl-7H-pyrrolo[2,3-d]pyrimidin-4-yl)-1H-pyrrolo[2,3-b]pyridine-3-carbonyl]-guanidine], the melting point is more than 260 °C. At NHE1, this compound had an IC50 of 0.037 µM. Regarding `N=C(N)NC(=O)c1cn(-c2cc(O)nc3ccccc23)c2ncccc12` [Example 10, N-[1-(2-Hydroxy-quinolin-4-yl)-1H-pyrrolo[2,3-b]pyridine-3-carbonyl]-guanidine], at NHE1, the IC50 is 0.66 µM.

What is called melting point is the temperature of the solid-liquid transition. The term IC50 denotes the concentration that inhibits the measured activity by half. A higher IC50 goes with weaker potency in that assay.

The values above are taken from patent US7230007B2, “Derivatives of 3-(Guanidinocarbonyl) heterocycle, methods of preparation and intermediates thereof, their use as medicaments, and pharmaceutical compositions therefrom” (Sanofi-Aventis Deutschland GmbH, priority 2003, dated 2007).
